Experimental findings from patent US7393845B2 (H. Lundbeck A/S, priority 2001, dated 2008) are described below.

The first assay concerns the target T1, cloned 5-HT1A receptors (Homo sapiens, UniProt P08908).
T1 construct: expressed in transfected cells
T1 sequence (P08908 1-422): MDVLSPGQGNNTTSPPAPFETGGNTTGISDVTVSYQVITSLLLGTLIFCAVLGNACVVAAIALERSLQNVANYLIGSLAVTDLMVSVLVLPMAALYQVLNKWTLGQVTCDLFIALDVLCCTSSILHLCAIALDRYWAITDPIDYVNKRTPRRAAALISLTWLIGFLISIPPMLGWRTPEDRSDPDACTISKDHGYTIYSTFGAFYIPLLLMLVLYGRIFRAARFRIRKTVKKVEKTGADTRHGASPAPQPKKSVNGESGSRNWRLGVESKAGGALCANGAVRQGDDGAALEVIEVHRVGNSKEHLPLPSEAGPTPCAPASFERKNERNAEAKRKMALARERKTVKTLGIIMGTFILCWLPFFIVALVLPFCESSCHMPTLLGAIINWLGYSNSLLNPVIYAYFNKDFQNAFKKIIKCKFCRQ
As to the kind of experiment: 5-HT1A antagonistic activity: antagonism of 5-HT induced inhibition of forskolin induced cAMP accumulation in transfected HeLa cells (HA7). The class given is cell-based.
Conditions: not given
The protocol: The 5-HT1A antagonistic activity of some of the compounds of the invention has been estimated in vitro at cloned 5-HT1A receptors stably expressed in transfected HeLa cells (HA7). In this test, 5-HT1A antagonistic activity is estimated by measuring the ability of the compounds to antagonize the 5-HT induced inhibition of forskolin induced cAMP accumulation. The assay was performed as a modification of the method described by Pauwels, P. J. et al. Biochem. Pharmacol. 1993, 45, 375.
Consider `N#Cc1ccc(N2CCN(CCCSc3ccc(C(F)(F)F)cn3)CC2)c2c1OCCO2` [Compound 1v, 2-{3-[4-(8-Cyano-2,3-dihydrobenzo[1,4]dioxin-5-yl)piperazin-1-yl]propylsulfanyl}-5-trifluoromethylpyridine], for which the IC50 is < 7000 nM.
On the same count and under the same terms, the figure for `Cc1ccc(C#N)c(SCCN2CCN(c3ccc(C#N)c4c3OCCO4)CC2)n1` [Compound 1e, {2-[4-(8-Cyano-2,3-dihydrobenzo[1,4]dioxin-5-yl)piperazin-1-yl]ethylsulfanyl}-6-methylnicotinonitrile] is < 7000 nM.
`Cc1cc(C(F)(F)F)c(C#N)c(SCCN2CCN(c3cccc4c3OCCO4)CC2)n1` [Compound 1b, 2-{2-[4-(2,3-Dihydrobenzo[1,4]dioxin-5-yl)piperazin-1-yl]ethylsulfanyl}-6-methyl-4-trifluoromethylnicotinonitrile]: the IC50 was < 7000 nM.

In another assay the target is T2, human 5-HT1A receptors (Homo sapiens, UniProt P08908).
T2 construct: expressed in transfected cells; cell homogenate
T2 sequence (P08908 1-422): T1 sequence (P08908 1-422)
As to the kind of experiment: Inhibition of 3H-5-CT binding to human 5-HT1A receptors.
Conditions: not given
The protocol: The affinity of the compounds of the invention to 5-HT1A receptors was determined by measuring the inhibition of binding of a radioactive ligand at 5-HT1A receptors as described in the following test:
Inhibition of ^3H-5-CT Binding to Human 5-HT1A Receptors.
By this method the inhibition by drugs of the binding of the 5-HT1A agonist ^3H-5-carboxamido tryptamine (^3H-5-CT) to cloned human 5-HT1A receptors stably expressed in transfected HeLa cells (HA7) (Fargin, A. et al. J. Biol. Chem. 1989, 264, 14848) is determined in vitro. The assay was performed as a modification of the method described by Harrington, M. A. et al. J. Pharmacol. Exp. Ther. 1994, 268, 1098. Human 5-HT1A receptors (40 μg of cell homogenate) were incubated for 15 minutes at 37° C. in 50 mM Tris buffer at pH 7.7 in the presence of ^3H-5-CT. Non-specific binding was determined by including 10 μM of metergoline. The reaction was terminated by rapid filtration through Unifilter GF/B filters on a Tomtec Cell Harvester. Filters were counted in a Packard Top Counter.
For `N#Cc1cccnc1SCCN1CCN(c2cccc3c2OCCO3)CC1` [Compound 2a], the IC50 was < 300 nM.

The assay is the same for the next values; noted with them: cloned human 5-HT1A receptors in HeLa cells (HA7), 15 minutes at 37° C., pH 7.7; read-out: IC50, inhibition of 3H-5-CT binding to human 5-HT1A receptors.
Consider `Cc1cc(C)c(C#N)c(SCCN2CCN(c3ccc(C#N)c4c3OCCO4)CC2)n1` [Compound 2s, 2-{3-[4-(8-Cyano-2,3-dihydrobenzo[1,4]dioxin-5-yl)piperazin-1-yl]ethylsulfanyl}-4,6-dimethylnicotinonitrile], for which the IC50 is < 300 nM.
The same measure, in the same setting: the figure for `Cc1cc(N2CCCCC2)nc(SCCN2CCN(c3ccc(C#N)c4c3OCCO4)CC2)c1C#N` [Compound 2c, 2-{2-[4-(8-Cyano-2,3-dihydrobenzo[1,4]dioxin-5-yl)piperazin-1-yl]ethylsulfanyl}-4-methyl-6-(piperidin-1-yl)nicotinonitrile] is < 300 nM; for `Cc1cc(C)c(C#N)c(SCCN2CCN(c3cc(Cl)cc4c3OCCN4)CC2)n1` [Compound 2ai, 2-[2-[4-(6-Chloro-2,3-dihydro-1,4-benzoxazin-8-yl)piperazin-1-yl]ethylsulfanyl]-4,6-dimethylnicotinonitrile] it is < 300 nM.
As to `Cc1cc(C)c(S(=O)(=O)c2ccccc2)c(SCCN2CCN(c3cccc4c3OCCO4)CC2)n1` [Compound 2l, 2-{3-[4-(2,3-Dihydrobenzo[1,4]dioxin-5-yl)piperazin-1-yl]ethylsulfanyl}-4,6-dimethyl-3-phenylsulfonylpyridine], the 50% inhibitory concentration (IC50) was < 300 nM.
Consider `Cc1cc(Cl)nc(SCCN2CCN(c3cc(Cl)cc4c3OCCN4)CC2)c1C#N` [Compound 2aj, 6-Chloro-2-[2-[4-(6-chloro-2,3-dihydro-1,4-benzoxazin-8-yl)piperazin-1-yl]ethylsulfanyl]-4-methylnicotinonitrile], for which the IC50 is < 300 nM.
Regarding `Cc1nc(SCCN2CCN(c3ccc(C#N)c4c3OCCO4)CC2)c(C#N)c(C)c1Cl` [Compound 2u, 5-Chloro-2-{3-[4-(8-cyano-2,3-dihydrobenzo[1,4]dioxin-5-yl)piperazin-1-yl]ethylsulfanyl}-4,6-dimethylnicotinonitrile], the IC50 was < 300 nM.
On the same count and under the same terms, in the case of `N#Cc1cccnc1SCCN1CCN(c2cc(Cl)cc3c2OCCN3)CC1` [Compound 2ah, 2-[2-[4-(6-Chloro-2,3-dihydro-1,4-benzoxazin-8-yl)piperazin-1-yl]ethylsulfanyl]nicotinonitrile] it was < 300 nM; in that of `Cc1cc(C(F)(F)F)c(C#N)c(SCCN2CCN(c3cccc4c3OCCO4)CC2)n1` [Compound 1b, 2-{2-[4-(2,3-Dihydrobenzo[1,4]dioxin-5-yl)piperazin-1-yl]ethylsulfanyl}-6-methyl-4-trifluoromethylnicotinonitrile], < 300 nM; in that of `Cc1cc(Cl)nc(SCCN2CCN(c3cccc4c3OCCO4)CC2)c1C#N` [Compound 2o, 6-Chloro-2-{3-[4-(2,3-dihydrobenzo[1,4]dioxin-5-yl)piperazin-1-yl]ethylsulfanyl}-4-methylnicotinonitrile], < 300 nM.
Same read-out and setting: in the case of `Cc1cc(C)c(C#N)c(SCCN2CCN(c3cc(Cl)cc4c3OCC(=O)N4)CC2)n1` [Compound 2aa, 2-[2-[4-(6-Chloro-2,3-dihydro-1,4-benzoxazin-3-on-8-yl)piperazin-1-yl]ethylsulfanyl]-4,6-dimethylnicotinonitrile] it was < 300 nM.
Consider `N#Cc1cccnc1SCCN1CCN(c2cc(Cl)cc3c2OCC(=O)N3)CC1` [Compound 2z, 2-[2-[4-(6-Chloro-2,3-dihydro-1,4-benzoxazin-3-on-8-yl)piperazin-1-yl]ethylsulfanyl]nicotinonitrile], for which the IC50 is < 300 nM.
